# Reference: patent US4968686A, “Acyclic pyrrolo [2,3-d]pyrimidine analogs as antiviral agents” (The Regents of The University of Michigan, priority 1989, dated 1990)
# Columns and labels:
# [1] = Visual cytotoxicity scoring in HFF cells; assay type: cell-based; details: human, Table 1, at time of HCMV plaque enumeration, read-out: 50% Inhibitory Concentration Cytotoxicity HFF (visual)
# From the text: (§1) Cytotoxicity produced in HFF and BSC-1 cells was estimated by visual scoring of cells not affected by virus infection in the HCMV and HSV-1 plaque reduction assays. Cytopathology was estimated at 35- and 60-fold magnification and scored on a zero to four plus basis. Wells were scored on the day of staining.
# (§2) Dose-response relationships were used to compare drug effects. These were constructed by linearly regressing the percent inhibition of parameters derived in the preceding sections against log drug concentrations. The 50% inhibitory (I50) concentrations were calculated from the regression lines using the methods described by Goldstein. See Goldstein, A., Biostatistics: An Introductory Text, MacMillan, N.Y., 1964, pp. 156-161. Along with the I50 concentration for visual cytotoxicity, the averaged I50 concentrations are compared to I50 concentrations for inhibition for HCMV or HSV-1 replication. Compounds for which the ratio of cytotoxicity I50 concentrations to antiviral I50 concentrations (in vitro therapeutic index) were greater than 10, were considered for further study.
# [2] = test system: HCMV; test: HCMV plaque (focus) reduction assay; assay type: cell-based; details: Human betaherpesvirus 5; Table 1; HFF cells; read-out: 50% Inhibitory Concentration HCMV Plaque
# From the text: (§3) The 148 strain of HSV-1 was used in most experiments and was provided by Dr. T. W. Schafer of Schering corporation. The HF strain of HSV-1 was used in selected experiments and was obtained from Dr. G. H. Cohen, University of Pennsylvania. The Towne strain, plaque-purified isolate Po, of HCMV was a gift of Dr. Mark Stinski, University of Iowa.
# (§4) HCMV was titered in 24-well cluster dishes which were planted to contain 5×10^4 cells/well, grown as described above. When the cells were 70 to 80% confluent, 0.2 ml of the virus suspension was added per wall and adsorbed as described above. At least three ten-fold dilutions of each preparation were used. Following virus adsorption, the cell sheets were overlayed with 0.5% methocel (4000 CPS) in maintenance medium [MEM(E) with 1.1 gm/liter NaHCO3, 100 units/ml penicillin G, 100 μg/ml streptomycin, and 5% fetal bovine serum]. The cultures were incubated in a humidified atmosphere of 4% CO2 -96% air. Viral foci were visible 5 to 7 days after infection using at least 10-fold magnification. Cells were fixed and stained by a 10-minute exposure to a 0.1% solution of crystal violet in 20% methanol 7 to 12 days after infection. Microscopic foci were enumerated at 20-fold magnification using a Nikon Profile Projector.
# (§5) The effect of compounds of the replication of HCMV has been measured using both a plaque (focus) reduction assay and a titer (yield) reduction assay. For the former, HFF cells in 24-well culture dishes were infected with approximately 50 p.f.u. of HCMV per well using the procedures detailed above. Compounds dissolved in growth medium were added in three to six selected concentrations to triplicate wells following virus adsorption. Following incubation at 37° C. for 7 to 10 days, cell sheets were fixed, stained and microscopic foci were enumerated as described above. Drug effects were calculated as a percentage of reduction in number of foci in the presence of each drug concentration compared to the number observed in the absence of drug. DHPG (ganciclovir) was used as a positive control in all experiments.
# as §2
# [3] = test system: HCMV; test: HCMV titer, plaque or yield reduction; assay type: cell-based, human cytomegalovirus (Towne strain) in HFF cells
# From the text: as §3, §4, §5
# (§6) For titer reduction analysis, HFF cells were planted as described above in 24-well cluster dishes or in 25 cm^2 flasks. When monolayers were approximately 70% confluent, HCMV was added at a m.o.i. of 0.5 p.f.u. per cell and adsorbed as detailed above. Compounds dissolved in growth medium were added in one or one-half logarithm10 dilutions and incubation continued at 37° C. After 7 to 10 days of incubation, culture dishes or flasks were frozen at […] For titer determination, cells were thawed and then subjected to two more cycles of freezing and thawing at 37° C. Serial, one-logarithm10 dilutions of the final suspension were prepared and inoculated onto new cultures of HFF cells. Titer determination was as detailed above in part (1) (b).
# as §2
# [4] = test system: HCMV; test: HCMV titer (yield) reduction assay; assay type: cell-based; details: Human betaherpesvirus 5; for IC90: Table 1, I90, HFF cells, read-out: HCMV Yield, 90% inhibitory concentration (I90)
# From the text: as §3, §4, §6, §2
# [5] = in vitro; assay type: cell-based, human; details: human, kb cells
# Procedure: KB or HFF cells were planted using a Costar Transplate-96 (Costar, Cambridge, Mass.) in Costar 96-well cluster dishes at a concentration of 10,000 to 12,000 cells per well. Wells were suspended in 200 μl of medium [MDM(H) plus 0.7 gm/liter NaCHO3 supplemented with 10% calf serum] per well. After incubation of 16 to 24 hours at 37° C. in a humidified atmosphere of 4% CO2 in air, […] of medium was removed per well. One-hundred μl of medium with or without compounds in twice their final concentrations was added to each well using a Titertek Multichannel Pipette. Final concentrations of compounds ranged from 0.1 to 320 μM. Fifty μl of medium containing radioactive precursors also was added to each well to give a final concentration to 1 to 3 μCi/ml of labeled precursor. [^3 H]Thd was diluted with unlabeled dThd to give a final concentration of 3 or 6 μM.
# Logarithmic cell growth occurred during this time with continual uptake of labeled precursors. At the end of the incubation period, cells were individually harvested from each well using a Skatron Cell harvester (Skatronh, Inc., Sterling, Va.). Cultures for individual wells were harvested onto filter paper and washed free of unincorporated label with nine sequential washes with 5% trichloroacetic acid, nine washes with water, and nine with ethanol using the Skatron unit. Filters were dried, circles from individual cultures were punched from the filter mat and placed into mini-vials. Liquid scintillation solution was added, and radioactivity determined in a Beckman model LS8100 liquid scintillation spectrometer. All samples were counted for 2.0 minutes each, with three rounds of counting. Counts per minute were determined following the application of statistical methods to eliminate count rates which fell outside distribution limits defined by Chauvenet's rejection criterion.
# All analyses were performed in triplicate. That is, three culture wells were used per time point, radioactive precursor, and drug concentration in all experiments. Results from triplicate assays were converted to percent of control and plotted as log dose-response curves from which 50% inhibitor (I50) concentrations were interpolated. Three concentrations of vidarabine were included on all plates as a positive control.
# as §2
# [6] = Visual cytotoxicity scoring in BSC-1 cells; assay type: cell-based; details: african green monkey, Table 1, at time of HSV-1 plaque enumeration, read-out: 50% Inhibitory Concentration Cytotoxicity BSC (visual)
# From the text: as §1, §2
# [7] = Human betaherpesvirus 5, Table 2, read-out: HCMV Titer, Plaque or Yield Reduction, 50% Inhibitory Concentration
SMILES,CC50 [1] [µM],IC50 [2] [µM],activity against HCMV (in words) [3],"IC50 ([3]; Human betaherpesvirus 5, read-out: HCMV Titer, Plaque or Yield Reduction, 50% Inhibitory Concentration) [µM]",IC90 [4] [µM],CC50 [5] [µM],CC50 [6] [µM],"log reduction at 10 µM ([4]; FIG. 2, 10 μM)","IC50 [3, 7] [µM]","log reduction at 100 µM ([4]; FIG. 2, 10-fold higher concentration than UMJD 183 (10 μM))"
"Nc1ncnc2c1c(Br)cn2COCCO [UMJD 102, 4-Amino-5-bromo-7-(2-hydroxyethoxymethyl)pyrrolo[2,3-d]-pyrimidine]",100,3.5,active,3.9,13,100,> 100,,,
"Nc1ncnc2c1c(Br)cn2COC(CO)CO [UMJD 183, 4-amino-5-bromo-7-[(1,3-dihydroxy-2-propoxy)methyl]-pyrrolo[2,3-d]pyrimidine]",> 100,1.6,most active,,1.9,25,> 100,~5,,
"Nc1ncnc2c1c(Cl)cn2COCCO [UMJD 100, 4-Amino-5-chloro-7-(2-hydroxyethoxymethyl)pyrrolo[2,3-d]-pyrimidine]",> 100,22,active,,46,350,> 100,,16,
"Nc1nc(O)c2ncn(COC(CO)CO)c2n1 [Ganciclovir (DHPG), reference compound]",> 100,8.7,,,1.8,1000,> 100,,8.8,
"OCC(CO)OCn1cc(Br)c2c(NO)ncnc21 [UMJD 299, 4-hydroxylamino-5-bromo-7-[(1,3-dihydroxy-2-propoxy)methyl]pyrrolo[2,3-d]pyrimidine]",> 100,1.2,active and nearly as potent as the 4-amino analogs,,10,357,,,,
"Nc1ncnc2c1c(I)cn2COCCO [UMJD 104, 4-Amino-5-iodo-7-(2-hydroxyethoxymethyl)pyrrolo[2,3-d]-pyrimidine]",100,24,active,,14,94,> 100,,24,
"Nc1nc2c(ncn2COCCO)c(=O)[nH]1 [Acyclovir, reference compound]",> 100,63,only modest activity,,90,> 100,> 100,,63,
"Nc1ncnc2c1c(Cl)cn2COC(CO)CO [UMJD 186, 4-amino-5-chloro-7-[(1,3-dihydroxy-2-propoxy)-methyl]pyrrolo[2,3-d]pyrimidine]",> 100,9.8,,,8,> 100,> 100,,,5
